Test results from patent US8999243B2, “Blood coagulation system analyzing method and blood coagulation system analyzing device” (Sony Corporation, priority 2011, dated 2015).

Tests used:
[1] = tested on: platelets in sample blood / platelet poor blood; assay: Rheometer (free damped oscillation type) measurement of viscoelasticity change / coagulation time; type: cell-based, human
Protocol: By using an evacuated blood collection tube treated with use of sodium citrate as an anticoagulant, blood was collected from the healthy person and the patient with thrombocytopenia (the number of platelets in 1 μL of blood was 1.2×10^4) as a whole blood sample. Furthermore, blood cells and platelets were separated from the whole blood sample to prepare platelet poor plasma. The sample blood was centrifuged under a condition of 500 G and five minutes to be separated into blood cells and platelet rich plasma (PRP). The plasma was centrifuged under a condition of 2000 G and 30 minutes and sedimentation of the platelets was caused to obtain the platelet poor plasma (PPP). Measurement was performed by using a rheometer of the free damped oscillation type. The coagulation time was obtained by observing a change in the viscoelasticity and compared with the result by the dielectric measurement.

[2] = tested on: platelets in sample blood (whole blood); assay: Dielectric measurement (complex permittivity) of blood coagulation with platelet activating agent; type: cell-based, human; conditions: frequency 10.7 MHz
Protocol: By using an evacuated blood collection tube treated with use of sodium citrate as an anticoagulant, blood was collected from the healthy person and the patient with thrombocytopenia (the number of platelets in 1 μL of blood was 1.2×10^4) as a whole blood sample. Next, 0.25 M of a calcium chloride aqueous solution was added (85 μL per 1 mL of blood) to the sample blood whose temperature was kept at 37° C. and a blood coagulation reaction was started. The platelet activating agent (ADP) was so added as to be mixed in the calcium chloride aqueous solution (10 μM per 1 mL of blood). Immediately after the start of the blood coagulation reaction, measurement was performed for 60 minutes by using an impedance analyzer (Agilent Corporation, 4294A) under the following condition: temperature was 37° C.; frequency range was 40 Hz to 110 MHz; and measurement time interval was one minute.

In the case of `Nc1ncnc2c1ncn2[C@@H]1O[C@H](COP(=O)(O)OP(=O)(O)O)[C@@H](O)[C@H]1O` [ADP, adenosine diphosphate], the “change of coagulation time due to ADP addition (rheometer)” value ([1]; platelet poor blood (cleaned red blood cells added to platelet poor plasma)) is reported as “not observed”, the “change of coagulation time due to ADP addition (rheometer)” value ([1]; sample blood of the healthy person) is reported as “shortening of the coagulation time” and the “coagulation time with ADP addition” value ([2]; sample blood of patient with thrombocytopenia (1.2×10^4 platelets in 1 μL), ADP added) is reported as 38 min. The “change of coagulation time due to ADP addition (dielectric measurement)” value ([2]; sample blood of patient with thrombocytopenia) was “shortening of the coagulation time was found”, the “average of the coagulation time when the ADP was added” value ([2]; sample blood of plural healthy persons, ADP 10 μM per 1 mL of blood in calcium chloride solution, 37° C., without ADP 31 minutes) was 17 min and the “change of coagulation time due to ADP addition (dielectric measurement)” value ([2]; sample blood of plural healthy persons) was “shortening of the coagulation time”.
